From patent US6559160B1, “Compounds and methods for modulating cxcr3 function” (Chemocentryx, Inc., priority 1999, dated 2003)
pIC50: −log10 of the molar value.

What was measured:
CXCR3 = target: T1, CXCR3 (Homo sapiens, UniProt P49682); test: CXCR3 binding assay: inhibition of 125I-IP-10 binding to CXCR3-expressing cells; conditions: concentration required to reduce binding of labeled IP-10 to the receptor by 50%, approx. 3 hours at 4° C.
T1 construct: CXCR3-expressing cells were prepared according to standard methods and used in most assays
T1 sequence (P49682 1-368): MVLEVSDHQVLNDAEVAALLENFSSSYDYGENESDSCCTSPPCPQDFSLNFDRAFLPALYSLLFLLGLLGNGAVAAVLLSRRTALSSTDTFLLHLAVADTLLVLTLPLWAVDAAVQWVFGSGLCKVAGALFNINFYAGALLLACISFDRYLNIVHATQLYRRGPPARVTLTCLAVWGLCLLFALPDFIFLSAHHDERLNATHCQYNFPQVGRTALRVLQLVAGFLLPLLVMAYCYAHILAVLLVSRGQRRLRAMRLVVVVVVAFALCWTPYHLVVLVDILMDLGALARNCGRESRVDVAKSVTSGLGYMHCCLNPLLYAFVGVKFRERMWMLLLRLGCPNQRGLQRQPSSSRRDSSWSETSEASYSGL
Procedure: Source plates of chemical libraries were obtained from commercial vendors and contained individual compounds at 5 mg/mL in DMSO, or in some instances, at 1 mg/mL. From these, multiple compound plates containing 10 compounds in each well were made, and these were diluted in 20% DMSO to a concentration of 50 μg/mL (10 μg/mL for those beginning at 1 mg/mL). An aliquot of 20 μL of each mixture was put into the test plates, which were stored frozen until use.
CXCR3-expressing cells were prepared according to standard methods and used in most assays. The cells were cultured in IMDM-5% FBS, and harvested when the concentration was between 0.5-1.0×10^6 cells/mL. The cells were centrifuged and resuspended in assay buffer (20 mM HEPES, 80 mM NaCl, 1 mM CaCl2, 5 mM MgCl2, and with 0.2% bovine serum albumin, pH 7.1) to a concentration of 5.6×10^6 cells/mL. Using a Multi-Probe automated system, 0.09 mL of cells was added to each well of the assay test plates containing the compounds, followed by 0.09 mL of ^125I-Ip-10 (from New England Nuclear) diluted in assay buffer (final concentration ˜25-100 pM, with ˜50,000 cpm per well). The final concentration of the compounds was 1-5 μg/mL each. The plates were sealed and incubated for approximately 3 hours at 4° C. on a shaker platform. (In some experiments radiolabeled MIG was used.) The assay plates were harvested using Packard filter plates, pre-soaked in PEI solution, on the vacuum harvest apparatus. Scintillation fluid (35 μL) was added to each of the wells, the plates were sealed and counted in a Top Count scintillation counter. Control wells contained either diluent only (for total counts) or excess IP-10 (1 μg/mL, for non-specific binding) and were used to calculate the percent of total inhibition for each set of compounds. Further tests on individual compounds were carried out in the same manner. IC50 values are those concentrations required to reduce the binding of labeled IP-10 to the receptor by 50%.
The binding of IP-10 or MIG to CXCR3 was first optimized by testing various pH and salt concentrations for their effect in a homologous competition assay. Maximum binding of radiolabeled MIG takes place under low salt (80 mM) conditions, as compared to normal salt (140 mM), while there is no difference between pH 7.1 and 7.4.

[1] = system: 5 other chemokine receptors on activated lymphocytes; test: Signalling (calcium mobilization) by other chemokines on activated lymphocytes; format: cell-based, human
Procedure: Calcium mobilization assays were performed by labeling human peripheral blood lymphocytes (cultured in 10 ng/mL IL-2 for at least 12 days) with INDO-1 dye (45 min at room temperature), washing with PBS, and resuspending into flux buffer (HBSS with 1% fetal bovine serum). For each test, 1×10^6 cells were incubated at 37° C. in the cuvette of a PTI spectrometer, and the ratio of 400/490 nm emission was plotted over time (typically 2-3 minutes), with compounds added at 5 seconds, followed by IP-10 or other chemokines.

| SMILES | pIC50 (CXCR3) | interference with signalling by other chemokines [1] | melting point [°C] |
| --- | --- | --- | --- |
| CCCCCC(=O)N(CCN(C)C)C(C)c1nc2ccccc2c(=O)n1-c1ccc(F)cc1 (stereo not shown) [Compound 1.1] | < 5.30 |  |  |
| CCCCCCC(=O)N(CCN(C)C)C(C)c1nc2ccccc2c(=O)n1-c1ccc(F)cc1 (stereo not shown) [Compound 1.2] | < 5.30 |  |  |
| CCCCCCC(=O)N(CCN(C)C)C(C)c1nc2ccccc2c(=O)n1-c1ccc(OC)cc1 (stereo not shown) [Compound 1.3] | 5.30 to 6.10 |  |  |
| CCCCCCCC(=O)N(CCN(C)C)C(C)c1nc2ccccc2c(=O)n1-c1ccc(Br)cc1 (stereo not shown) [Compound 1.4] | 5.30 to 6.10 |  |  |
| CCCCCCCC(=O)N(CCN(C)C)C(C)c1nc2ccccc2c(=O)n1-c1ccc(OC)cc1 (stereo not shown) [Compound 1.5] | 5.30 to 6.10 |  |  |
| CCCCCCCC(=O)N(CCN(C)C)C(C)c1nc2ccccc2c(=O)n1-c1ccc(F)cc1 (stereo not shown) [Compound 1.6] | 5.30 to 6.10 |  |  |
| CCCCCCCCC(=O)N(CCN(C)C)C(C)c1nc2ccccc2c(=O)n1-c1ccc(C)cc1 (stereo not shown) [Compound 1.7] | < 5.30 |  |  |
| CCCCCCCCC(=O)N(CCN(C)C)C(C)c1nc2ccccc2c(=O)n1-c1ccc(OC)cc1 (stereo not shown) [Compound 1.9] | ≥ 6.10 |  |  |
| CCCCCCCCC(=O)N(CCN(C)C)C(C)c1nc2ccccc2c(=O)n1-c1ccc(Cl)cc1 (stereo not shown) [Compound 1.10] | ≥ 6.10 |  |  |
| CCCCCCCCCC(=O)N(CCN(C)C)C(C)c1nc2ccccc2c(=O)n1-c1ccc(F)cc1 (stereo not shown) [Compound 1.11] | ≥ 6.10 | did not interfere with signalling by those chemokines |  |
| CCCCCCCCCC(=O)N(CCN(C)C)C(C)c1nc2ccccc2c(=O)n1-c1ccccc1 (stereo not shown) [Compound 1.12] | < 5.30 |  |  |
| CCCCCCCCCCCC(=O)N(CCN(C)C)C(C)c1nc2ccccc2c(=O)n1-c1ccc(Cl)cc1 (stereo not shown) [Compound 1.13] | 5.30 to 6.10 |  |  |
| CCCCCCCCCCCCCC(=O)N(CCN(C)C)C(C)c1nc2ccccc2c(=O)n1-c1ccc(F)cc1 (stereo not shown) [Compound 1.14] | ≥ 6.10 |  |  |
| CCCCCCCCCCCCCC(=O)N(CCN(C)C)C(C)c1nc2ccccc2c(=O)n1-c1ccc(OC)cc1 (stereo not shown) [Compound 1.15] | ≥ 6.10 |  |  |
| CCCCCCCCCC(=O)N(CCN(C)C)C(C)c1nc2ccc(OC)cc2c(=O)n1-c1ccc(OC)cc1 (stereo not shown) [Compound 4.1] |  |  | 124.2 |
| CCCCCCCCCC(=O)N(CCN(C)C)C(C)c1nc2ccc(C)cc2c(=O)n1-c1ccc(F)cc1 (stereo not shown) [Compound 4.4] |  |  | 121 |
| CCCCCCCCCC(=O)N(CCN(C)C)C(C)c1nc2ccc(Cl)cc2c(=O)n1-c1ccc(F)cc1 (stereo not shown) [Compound 4.5] |  |  | 122.9 |
| CCCCCCCCCC(=O)N(CCN(C)C)C(C)c1nc2c(OC)c(OC)c(OC)cc2c(=O)n1-c1ccc(F)cc1 (stereo not shown) [Compound 4.7] |  |  | 106.7 |
